Source: paper PMC6054100, “Exploring the chemical space of the lysine-binding pocket of the first kringle domain of hepatocyte growth factor/scatter factor (HGF/SF) yields a new class of inhibitors of HGF/SF-MET binding” (Chemical Science, 2015)

Experiments:
[1] = target: T1, NK1 (Homo sapiens, UniProt P14210); assay: SPR steady-state binding to immobilized NK1 (Biacore T100); design: made in house; host or cells: Pichia pastoris
Outline: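 NK1 amine-coupled to a CM5 chip at 6000 RU; compound serial dilutions in PBS pH 7.4 with 0.05% Tween 20 injected at 30 μL min^–1, 1 min contact and 1 min dissociation. Binding constants derived from steady-state sensorgram analysis.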

[2] = target: T1, NK1; assay: SPR fragment library screening against NK1; type: binding; design: made in house; host or cells: Pichia pastoris; details: for SPR response: normalised relative value against NK1
Method: Supplementary Materials and Methods
Fragment library screening and data analysis
Met567 (soluble truncated f ragment of the MET ectodomain, residues 25- 567), NK1 and t he SPH domain were immobilized on CM5 chips by amine coupling. NK1 was diluted into 10 m M phosphate pH 7.0 and the SPH domain into 10 mM acetate pH 5.5 to a final concentration of 2.5 μM and 1 μM, respectively, for coupling. The immobilization wizard within the Biacore T100 software was set to “aim for immobiliz ed level” of 8000 RU to achieve complete saturation of the chip surface.
W ith minor deviations, the procedure and conditions outlined below were used f or a ll screening s of an in-house fragment library of 1338 members against individual target proteins. The running buffer was PBS pH 7.4, 0.05% Tween 20, 0.25% DMSO (1% DMSO for Met567). Fragments were stored as 100 mM stock solutions in DMSO. Prior to screening, fragment samples were diluted to 500 μM (1 mM f or Met567) in running buffer.
Screening was performed in 96- we ll plates at a flow rate of 30 μl min-1 with 1 min sample injection f ollowed by dissociation f or 1 min and surf ace regeneration using 1 M NaCl f or 30 […]
post-regeneration baseline exceeded the pre- sample baseline by more than 10 RU, a second regeneration cycle with 50% ethylene glycol was used. In order to be able to correct for small variations in DMSO concentration between samples, eight solvent samples ranging from 0.012 to 1.5% DMSO were injected every 40th cycle. To monitor the binding capacity of the NK1, SPH and Met567 surfaces throughout the screening, injections of 500 μM HEPES (NK1), 0.25 μM Met567 (SPH) and 0.2 μM NK1 and 1% DMSO (Met567) were carried out every 40th cycle. The flow cell temperature was 25°C. NK1 and the SPH domain were immobilized on the same chip (channels 2 and 3 respectively) and were theref ore screened in parallel. Met567 was screened separately and results are published in an accompanying paper (W in t er et al. 2015, in revision).
For data analysis, fir st, all responses were reference and solvent corrected. 1 Next, equilibrium binding for every fragment was determined and hits established by applying several filters: sensorgram shape, upper and lower threshold. Typical sensorgrams from fragment screening show “square curves” in SPR due to the fast on and off rates and fragments not showing this response were discarded from further analysis. Binding levels are represented as response units (RU) but the SPR signal is a convolution of multiple parameters including target coupling density, target -binding activity, target molecular weight and molecular weight of each injected fragment. To be able to identif y hits accurately and to be able to compare responses between different plates and targets, data were normalised against these factors. First the theoretical maximum response for each fragment was calculated using equation 1:
RRmmm = CCCCCCCC ddCdCdd× MMffmCmdCd (Equation 1)
This RUmax value diff ers for each protein target because it depends on the molecular weight of the protein and the amount of protein immobilized on the chip (coupling density). The RUmax was then used to calculate the normalised relative SPR response:
NNNNNNNNNN NNNNr NrN SSR NNNrNrNN = RRcppppcppc× 100% (Equation 2) […]
fragment should cause upon binding. 100% response would be 1:1 binding wit h levels above 100% implying over-stoichiometric binding. […]
Fragment library screening to identify small molecule binders

[3] = target: T2, lysine-binding pocket of the kringle domain of NK1 (Homo sapiens, UniProt P14210); assay: Soaking into NK1 apo crystals, X-ray crystallography; details: soaked into NK1 apo crystals
T2 construct: made in house; host or cells: Pichia pastoris
Method: Next, three classes of piperazine-like sulphonated compounds containing piperazine ((H)EPPS and PIPES), morpholine (MES and MOPS), or cyclohexane (CHES and CAPS) rings were studied for their binding to NK1 (Table 1), alongside another five sulphonated compounds selected from a chemical fragment library (Table 2).
NK1 buffered in 150 mM NaCl, 50 mM Tris, pH 7.5 (apo-NK1 and all soaking experiments) was concentrated to ∼20 mg mL^–1 using a Vivaspin device with a 10 kDa cut-off membrane (Sartorius Biolab). Crystallisation was carried out in Linbro plates by the vapour diffusion hanging drop technique using a protein : precipitant ratio of 1 : 1 at 20 °C. Previously NK1 has been crystallised in 18% PEG 4000, 200 mM sodium acetate and 150 mM Tris pH 8.5 as precipitant.[19] Here final crystallisation conditions (19% PEG 4000, 200 mM sodium acetate and 150 mM Tris pH 7.5) were optimised around those to achieve high-resolution apo structure. Details of compound soaking, X-ray data collection and structure determination are given in the ESI ^† section of the manuscript. […]
For this, 1 M stock solutions were prepared in DMSO (fragments) or water (piperazine- like compounds) and the pH adjusted to a value within their buffering range with either HCl or NaOH. The seven piperazine- like compounds and their respective pH are: HEPES (pH 7.6), (H)EPPS (pH 7.4), PIPES (pH 7.0), MES (pH 5.8), MOPS (pH 7.2), CHES (pH 8.6) and CAPS (pH 9.7). Secondary stocks of the compounds at 50 mM were prepared in the […]
respective mother liquor and soaked for up to 48 hours.
MB605 was solubilised in 50% DMSO at 20 mM concentration (1% f inal DMSO concentration in the drop) in order to minimize adverse effects of DMSO on the protein crystal. 25% ethylene glycol was used as the cryoprotective agent.
X-ray data collection and processing
X-ray datasets were collected either at the European Synchrotron Radiation Facility (ESRF, Grenoble, France), the Diamond Light Source (DLS, Oxford, UK) or in-house using the X8 PROTEUM (Bruker AXS) at the Department of Biochemistry, University of Cambridge.
Datasets of at least 180° were collected. Raw data collected at synchrotrons were integrated, merged, scaled and reduced using DENZO and […].2 Raw data […]
collected in- house were integrated, merged, scaled and reduced using the PROTEUM 2 software package .3 The CCP4 suite of crystallographic programs (Collaborative

T1 sequence (P14210 32-210 isoform P14210-6 limits assumed): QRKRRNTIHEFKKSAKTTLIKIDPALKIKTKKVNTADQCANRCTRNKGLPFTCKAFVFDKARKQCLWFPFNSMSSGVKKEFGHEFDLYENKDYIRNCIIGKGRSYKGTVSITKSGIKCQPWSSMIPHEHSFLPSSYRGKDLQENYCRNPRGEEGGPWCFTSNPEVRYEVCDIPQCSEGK
T2 sequence (P14210 32-210 isoform P14210-6 limits assumed): as above

affinity for NK1 relative to HEPES ([1]; fold better than HEPES): about ten times better affinity | Kd ([1]; steady-state binding constant from SPR, fragment hits (Table 3, text), read-out: KD): 310 ± 40 µM | Ranking order ([2]; based on fragment screening, rank among the 71 NK1 hits (ESI Tables S3-S7)): 1 | SPR response ([2]; fragments 500 μM (ESI Tables S3-S7)): 215% | SPR response ([2]; initial fragment screening, fragments 500 μM (Table 3)): 215% | binding in the lysine-binding pocket (crystal structure) [3]: binds in the lysine-binding pocket
SMILES: O=C(O)CCc1ccco1 [MB605]
